According to patent US8748417B2, “Amino-pyrrolidine-azetidine diamides as monoacylglycerol lipase inhibitors” (Janssen Pharmaceutica, NV, priority 2010, dated 2014):

Experiments:
[1] = target: T1, purified wild type MGL (wt-MGLL 6H-11-313) (Homo sapiens, UniProt Q99685); experiment: MGL enzyme activity assay (4MU-B cleavage), wild type MGL; format: biochemical; conditions: wild type MGL 5 nM, 4MU-B 10 μM, 37° C.; read-out: MGL wild type inh IC50
T1 construct: purified wild type MGL (wt-MGLL 6H-11-313)
T1 sequence (Q99685 1-303): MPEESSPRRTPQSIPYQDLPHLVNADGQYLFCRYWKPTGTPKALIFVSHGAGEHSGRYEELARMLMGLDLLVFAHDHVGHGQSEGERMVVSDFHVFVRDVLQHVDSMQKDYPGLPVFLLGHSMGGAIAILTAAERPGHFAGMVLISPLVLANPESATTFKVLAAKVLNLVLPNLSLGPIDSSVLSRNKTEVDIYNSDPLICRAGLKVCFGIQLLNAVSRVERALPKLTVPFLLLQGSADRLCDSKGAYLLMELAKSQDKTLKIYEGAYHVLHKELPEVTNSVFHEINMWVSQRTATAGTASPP
Protocol: All rate-based assays were performed in black 384-well polypropylene PCR microplates (Abgene) in a total volume of 30 μL. Substrate 4-methylumbelliferyl butyrate (4MU-B; Sigma) and either purified mutant MGL (mut-MGLL 11-313 L179S L186S) or purified wild type MGL (wt-MGLL 6H-11-313) were diluted separately into 20 mM PIPES buffer (pH=7.0), containing 150 mM NaCl and 0.001% Tween 20. Compounds of Formula (I) were pre-dispensed (50 nL) into the assay plate using a Cartesian Hummingbird prior to adding 4MU-B (25 μL of 1.2× solution to a final concentration of 10 μM) followed by enzyme (5 μL of a 6× solution to a final concentration of 5 nM) to initiate the reaction. Final compound concentrations ranged from 17 to 0.0003 μM. The fluorescence change due to 4MU-B cleavage was monitored with excitation and emission wavelengths of 335 and 440 nm, respectively, and a bandwidth of 10 nm (Safire^2, Tecan) at 37° C. for 5 min.
The IC50 values for the following compounds were determined using Microsoft Office Excel from a fit of the equation to the concentration-response plot of the fractional activity as a function of inhibitor concentration.

[2] = test system: MGL (rat brain homogenate); experiment: 2-AG accumulation assay in rat brain homogenate; format: biochemical; conditions: compound 1 μM, percent of vehicle 2-AG accumulation
Protocol: After a 15-min incubation time at 37° C., CaCl2 (final concentration=10 mM) was added and then incubated for 15 min at 37° C. in a total volume of 5 mL. The reactions were stopped with 6 mL organic solvent extraction solution of 2:1 chloroform/methanol. Accumulated 2-AG in the organic phase was measured by a HPLC/MS method, according to the following equation: percent vehicle=(2-AG accumulation in the presence of compound/2-AG accumulation in vehicle)×100.

IC50 [1] | SMILES | Rat Brain 2AG % VehCntrl (%) @1 μM [2]
0.0498 µM | Cn1cc(-c2cccc(C(F)(F)F)c2)c2ccc(C(=O)N3CC(N[C@H]4CCN(C(=O)c5ccccc5)C4)C3)cc21 [Cpd 166, (3S)-N-[1-({1-Methyl-3-[3-(trifluoromethyl)phenyl]-1H-indol-6-yl}carbonyl)azetidin-3-yl]-1-(phenylcarbonyl)pyrrolidin-3-amine] | 322%
< 0.005 µM | O=C(c1cscn1)N1CC[C@H](NC2CN(C(=O)c3cc4cc(-c5ccccc5)ccc4s3)C2)C1 [Cpd 131, (3S)-N-{1-[(5-Phenyl-1-benzothiophen-2-yl)carbonyl]azetidin-3-yl}-1-(1,3-thiazol-4-ylcarbonyl)pyrrolidin-3-amine] | 385%
< 0.005 µM | O=C(c1nccs1)N1CC[C@H](NC2CN(C(=O)c3ccc(-c4cccc(C(F)(F)F)c4)cc3F)C2)C1 [Cpd 116, (3S)-N-(1-{[3-Fluoro-3′-(trifluoromethyl)biphenyl-4-yl]carbonyl}azetidin-3-yl)-1-(1,3-thiazol-2-ylcarbonyl)pyrrolidin-3-amine] | 733%
0.0251 µM | Cn1cc(-c2cccc(C(F)(F)F)c2)c2ccc(C(=O)N3CC(N[C@H]4CCN(C(=O)c5cscn5)C4)C3)cc21 [Cpd 164, (3S)-N-[1-({1-Methyl-3-[3-(trifluoromethyl)phenyl]-1H-indol-6-yl}carbonyl)azetidin-3-yl]-1-(1,3-thiazol-4-ylcarbonyl)pyrrolidin-3-amine] | 458%
0.0322 µM | O=C(c1cscn1)N1CC[C@H](NC2CN(C(=O)c3sc4cc(C(F)(F)F)ccc4c3Cl)C2)C1 [Cpd 168, (3S)-N-(1-{[3-Chloro-6-(trifluoromethyl)-1-benzothiophen-2-yl]carbonyl}azetidin-3-yl)-1-(1,3-thiazol-4-ylcarbonyl)pyrrolidin-3-amine] | 611%
0.0905 µM | Cc1ccc2c(C(F)(F)F)c(C(=O)N3CC(N[C@H]4CCN(C(=O)c5nccs5)C4)C3)sc2c1 [Cpd 186, (3S)-N-(1-{[6-Methyl-3-(trifluoromethyl)-1-benzothiophen-2-yl]carbonyl}azetidin-3-yl)-1-(1,3-thiazol-2-ylcarbonyl)pyrrolidin-3-amine] | 563%
0.211 µM | O=C(c1ccc2nc(-c3ccccc3)sc2c1)N1CC(N[C@H]2CCN(C(=O)c3ccccc3)C2)C1 [Cpd 157, (3S)-N-{1-[(2-Phenyl-1,3-benzothiazol-6-yl)carbonyl]azetidin-3-yl}-1-(phenylcarbonyl)pyrrolidin-3-amine] | –
0.152 µM | Cc1c(C(=O)N2CC(N[C@H]3CCN(C(=O)c4cscn4)C3)C2)sc2cc(F)ccc12 [Cpd 88, (3S)-N-{1-[(6-Fluoro-3-methyl-1-benzothiophen-2-yl)carbonyl]azetidin-3-yl}-1-(1,3-thiazol-4-ylcarbonyl)pyrrolidin-3-amine] | –
0.165 µM | Cc1nc(-c2cccc(Cl)c2)sc1C(=O)N1CC(N[C@H]2CCN(C(=O)c3nccs3)C2)C1 [Cpd 136, (3S)-N-(1-{[2-(3-Chlorophenyl)-4-methyl-1,3-thiazol-5-yl]carbonyl}azetidin-3-yl)-1-(1,3-thiazol-2-ylcarbonyl)pyrrolidin-3-amine] | –
0.298 µM | Cn1nc(-c2ccccc2)c2cc(C(=O)N3CC(N[C@H]4CCN(C(=O)c5cscn5)C4)C3)ccc21 [Cpd 196, (3S)-N-{1-[(1-Methyl-3-phenyl-1H-indazol-5-yl)carbonyl]azetidin-3-yl}-1-(1,3-thiazol-4-ylcarbonyl)pyrrolidin-3-amine] | –
0.297 µM | O=C(c1ccc2c(-c3ccc(F)cc3)c[nH]c2c1)N1CC(N[C@H]2CCN(C(=O)c3ccccc3)C2)C1 [Cpd 191, (3S)-N-(1-{[3-(4-Fluorophenyl)-1H-indol-6-yl]carbonyl}azetidin-3-yl)-1-(phenylcarbonyl)pyrrolidin-3-amine] | –
0.217 µM | O=C(c1ccccc1)N1CC[C@H](NC2CN(C(=O)c3sc4cc(Cl)ccc4c3C(F)(F)F)C2)C1 [Cpd 182, (3S)-N-(1-{[6-Chloro-3-(trifluoromethyl)-1-benzothiophen-2-yl]carbonyl}azetidin-3-yl)-1-(phenylcarbonyl)pyrrolidin-3-amine] | –
0.41 µM | O=C(c1cc2ccc(Br)cc2s1)N1CC(N[C@H]2CCN(C(=O)c3nccs3)C2)C1 [Cpd 95, (3S)-N-{1-[(6-Bromo-1-benzothiophen-2-yl)carbonyl]azetidin-3-yl}-1-(1,3-thiazol-2-ylcarbonyl)pyrrolidin-3-amine] | –
4.88 µM | Cc1c(C(=O)N2CC(N(C=O)[C@H]3CCN(C(=O)c4ccccc4)C3)C2)sc2ccc(Cl)cc12 [Cpd 81, N-[1-[(5-Chloro-3-methyl-1-benzothiophen-2-yl)carbonyl]azetidin-3-yl]-N-[(3S)-1-(phenylcarbonyl)pyrrolidin-3-yl]formamide] | –
0.459 µM | Cn1nc(-c2cccc(F)c2)c2cc(C(=O)N3CC(N[C@H]4CCN(C(=O)c5ccccc5)C4)C3)ccc21 [Cpd 201, (3S)-N-(1-{[3-(3-Fluorophenyl)-1-methyl-1H-indazol-5-yl]carbonyl}azetidin-3-yl)-1-(phenylcarbonyl)pyrrolidin-3-amine] | –
1.05 µM | O=C(c1cscn1)N1CC[C@H](NC2CN(C(=O)c3cc4ccc(Br)cc4s3)C2)C1 [Cpd 96, (3S)-N-{1-[(6-Bromo-1-benzothiophen-2-yl)carbonyl]azetidin-3-yl}-1-(1,3-thiazol-4-ylcarbonyl)pyrrolidin-3-amine] | –
0.277 µM | O=C(c1ccccc1)N1CC[C@H](NC2CN(C(=O)c3sc4cc(C(F)(F)F)ccc4c3-c3ccccc3)C2)C1 [Cpd 74, (3S)-1-(Phenylcarbonyl)-N-(1-{[3-phenyl-6-(trifluoromethyl)-1-benzothiophen-2-yl]carbonyl}azetidin-3-yl)pyrrolidin-3-amine] | –
0.311 µM | O=C(c1ccc2c(-c3ccccc3)ncnc2c1)N1CC(N[C@H]2CCN(C(=O)c3nccs3)C2)C1 [Cpd 110, (3S)-N-{1-[(4-Phenylquinazolin-7-yl)carbonyl]azetidin-3-yl}-1-(1,3-thiazol-2-ylcarbonyl)pyrrolidin-3-amine] | –
0.231 µM | Cc1c(C(=O)N2CC(N(C=O)[C@H]3CCN(C(=O)c4nccs4)C3)C2)sc2ccc(Cl)cc12 [Cpd 82, N-{1-[(5-Chloro-3-methyl-1-benzothiophen-2-yl)carbonyl]azetidin-3-yl}-N-[(3S)-1-(1,3-thiazol-2-ylcarbonyl)pyrrolidin-3-yl]formamide] | –
1.28 µM | O=C(c1ccc2c(ccn2-c2ncccn2)c1)N1CC(N[C@H]2CCN(C(=O)c3ccccc3)C2)C1 [Cpd 155, (3S)-1-(Phenylcarbonyl)-N-{1-[(1-pyrimidin-2-yl-1H-indol-5-yl)carbonyl]azetidin-3-yl}pyrrolidin-3-amine] | –
< 0.005 µM | Cc1c(C(=O)N2CC(N[C@H]3CCN(C(=O)c4nccs4)C3)C2)sc2ccc(-c3ccc(C(F)(F)F)cc3)cc12 [Cpd 91, (3S)-N-[1-({3-Methyl-5-[4-(trifluoromethyl)phenyl]-1-benzothiophen-2-yl}carbonyl)azetidin-3-yl]-1-(1,3-thiazol-2-ylcarbonyl)pyrrolidin-3-amine] | –
0.488 µM | Cc1ccc2c(C(F)(F)F)c(C(=O)N3CC(N[C@H]4CCN(C(=O)c5cscn5)C4)C3)sc2c1 [Cpd 185, (3S)-N-(1-{[6-Methyl-3-(trifluoromethyl)-1-benzothiophen-2-yl]carbonyl}azetidin-3-yl)-1-(1,3-thiazol-4-ylcarbonyl)pyrrolidin-3-amine] | –
2.04 µM | Cn1nc(-c2ccc(F)cc2)c2cc(C(=O)N3CC(N[C@H]4CCN(C(=O)c5cscn5)C4)C3)ccc21 [Cpd 210, (3S)-N-(1-{[3-(4-Fluorophenyl)-1-methyl-1H-indazol-5-yl]carbonyl}azetidin-3-yl)-1-(1,3-thiazol-4-ylcarbonyl)pyrrolidin-3-amine] | –
0.145 µM | O=C(c1ccc2nc(-c3ccccc3)sc2c1)N1CC(N[C@H]2CCN(C(=O)c3nccs3)C2)C1 [Cpd 133, (3S)-N-{1-[(2-Phenyl-1,3-benzothiazol-6-yl)carbonyl]azetidin-3-yl}-1-(1,3-thiazol-2-ylcarbonyl)pyrrolidin-3-amine] | –
2.93 µM | Cc1nc(-c2ccccc2F)sc1C(=O)N1CC(N[C@H]2CCN(C(=O)c3nccs3)C2)C1 [Cpd 134, (3S)-N-(1-{[2-(2-Fluorophenyl)-4-methyl-1,3-thiazol-5-yl]carbonyl}azetidin-3-yl)-1-(1,3-thiazol-2-ylcarbonyl)pyrrolidin-3-amine] | –
